Publication PMC8338929, “Acetylation turns leucine into a drug by membrane transporter switching” (Scientific Reports, 2021)

Target: T1, human MCT1 (SLC16A1) (Homo sapiens, UniProt P53985)
T1 construct: host or cells: MDCK-II
T1 sequence (P53985 1-500): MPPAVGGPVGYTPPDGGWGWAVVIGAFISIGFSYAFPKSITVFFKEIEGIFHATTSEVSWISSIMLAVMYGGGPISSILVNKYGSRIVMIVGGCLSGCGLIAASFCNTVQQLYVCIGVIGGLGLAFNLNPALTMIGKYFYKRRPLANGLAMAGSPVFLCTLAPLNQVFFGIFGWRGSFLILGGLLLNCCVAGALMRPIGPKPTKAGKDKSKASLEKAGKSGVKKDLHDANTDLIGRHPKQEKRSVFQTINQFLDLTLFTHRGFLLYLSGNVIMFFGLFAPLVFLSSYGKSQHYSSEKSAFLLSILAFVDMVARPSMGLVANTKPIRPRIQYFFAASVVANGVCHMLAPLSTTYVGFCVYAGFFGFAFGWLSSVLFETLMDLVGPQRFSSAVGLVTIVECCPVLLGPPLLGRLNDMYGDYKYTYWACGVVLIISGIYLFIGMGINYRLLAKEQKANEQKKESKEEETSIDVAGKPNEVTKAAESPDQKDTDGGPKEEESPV
Test: Inhibition of MCT1 uptake of probe substrate 2-thiophene glyoxylate in MDCK-II cells
Type: cell-based
Experimental: Transport studies with human PepT1 (SLC15A1), LAT1 (SLC7A5) and MCT1 (SLC16A1) were conducted in MDCK-II cells expressing the human transporter or control cells expressing a vector with Green Fluorescence Protein. Cells were transfected using a proprietary, transient transfection system (OPTI-EXPRESSION Technology, BioIVT). The results from the control cells were used to correct for substrate permeation by routes other than the transporter being investigated in the study. […] Specifically, Net Transporter Mediated Substrate Uptake (pmol/min/cm^2) = (Cellular accumulation in the presence of the transporter) − (Mean cellular accumulation in the absence of the transporter). MDCK-II cells were maintained in DMEM with low glucose and 10% FBS. Cells were used at passages up to 40 were seeded at 60,000 ± 10,000 cells/well on 96-well plates approximately 24 h before transfection, and transport assays were performed approximately 48 h after transfection. Transport studies in MDCK-II cells were conducted in 96-well insert plates with permeable membrane (0.4 µm) and receiver tray (Millipore MultiScreen Filter 96-well).
Transport studies with PepT1 were conducted in 96-well cell culture plate with wells containing a monolayer of MDCK-II cells grown on a permeable support and a corresponding 96-well receiver tray. Cell plates are maintained at 37 °C in 5% CO2 atmosphere prior to initiation of the transport experiment. Pre-incubation was conducted in HBSS, pH 7.4. The transport experiments were conducted in HBSS with Bis–Tris, pH 5.5, without phenol red. Both pre-incubation and incubation were conducted at 37 °C. All final assay solutions of probe substrate, reference inhibitor or test article contain 0.5% (v/v) DMSO (vehicle control). The culture plate insert […] was washed with warm HBSS three times and then blotted dry. The culture plate wells […] were washed with warm HBSS three times. 100 µL of 37 °C HBSS pH 7.4 pre-incubation buffer to the apical compartment as follows: for the probe substrate transport assay, the HBSS contains vehicle; for the reference inhibition assay, the HBSS contains the reference inhibitor at the required concentration; for the test article assays, the HBSS in each well contains test compound at the specified concentration. The plates were incubated at 37 °C with orbital shaking at approximately 60 rpm for the pre-incubation (30 min), aspirated and then 100 µL of the experimental buffer was added. […] Then a 30-µL sample was taken and mixed with 200 µL of scintillation fluid and scintillation counted (1450 Microbeta, Perkin-Elmer). […]

Ki (Cheng-Prusoff equation from IC50, competitive inhibition assumed, read-out: affinity (Ki) MCT1): 4.3 mM | IC50 (probe 2-thiophene glyoxylate 500 µM, positive control phloretin 500 µM): 15 mM
Structure (SMILES): CC(=O)N[C@@H](CC(C)C)C(=O)O [N-acetyl-L-leucine]
